Patent publication US4264736A, “Antibiotic 890A10” (Merck & Co., Inc., priority 1979, dated 1981)

Columns and labels:
bacterial β-lactamases = assay: Inhibition of bacterial β-lactamases (statement); assay type: biochemical
[1] = system: Protcus vulgaris MB No. 1012; assay: Antibiotic spectrum profile, agar zone of inhibition; assay type: cell-based; conditions: 0.015 ml of 9.5 μg/ml aqueous solution, 25° C., read-out: Inhib. Zone Diam.
[2] = system: Erwinia atroseptica ATCC 4446; assay: as above; assay type: cell-based; conditions: Pectobacterium atrosepticum, ATCC4446, 0.015 ml of 9.5 μg/ml aqueous solution, 25° C., read-out: Inhib. Zone Diam.
[3] = system: Vibrio percolans ATCC 8461; assay: as above; assay type: cell-based; conditions: Comamonas terrigena, ATCC8461, 0.015 ml of 9.5 μg/ml aqueous solution, 25° C., read-out: Inhib. Zone Diam.
[4] = Electrophoresis at neutral pH; assay type: physicochemical; conditions: 50 volts/cm, 0.03 M potassium phosphate buffer, pH 7.1, 30 minutes
Procedure: Antibiotic 890A10 is an acidic substance which migrates toward the positive pole on electrophoresis at neutral pH. At a gradient of 50 volts/cm. in 0.03 M potassium phosphate buffer, pH 7.1, the antibiotic moves 8.0 cm. in 30 minutes, compared with a movement of 4.0 cm. for 890A1. The disodium salt is a white or slightly yellow powder as lyophilized from aqueous solution. Under acidic conditions in aqueous solution, the antibiotic is unstable, and the free acid form has not been isolated.

[5] = system: Brucella bronchiseptica ATCC 4617; assay: microbe, parasite or virus in culture; assay type: cell-based; conditions: Bordetella bronchiseptica, ATCC4617, read-out: Inhib. Zone Diam.
[6] = system: Corynebacterium psedodiph. ATCC 9742; assay: Antibiotic spectrum profile, agar zone of inhibition; assay type: cell-based; conditions: ATCC9742, 0.015 ml of 9.5 μg/ml aqueous solution, 25° C., read-out: Inhib. Zone Diam.
[7] = Stability in aqueous solution under acidic conditions; assay type: physicochemical; conditions: free acid form not isolated
[8] = system: Vibrio percolans MB No. 2566 (res. ceph C); assay: Antibiotic spectrum profile, agar zone of inhibition; assay type: cell-based; conditions: Comamonas terrigena, read-out: Inhib. Zone Diam.
[9] = system: Pseudomonas aeruginosa MB No. 979; assay: as above; assay type: cell-based; conditions: MBNO.979, 0.015 ml of 9.5 μg/ml aqueous solution, 25° C., read-out: Inhib. Zone Diam.
[10] = system: Salmonella gallinarum MB No. 1287; assay: as above; assay type: cell-based; conditions: Salmonella enterica, 0.015 ml of 9.5 μg/ml aqueous solution, 25° C., read-out: Inhib. Zone Diam.
[11] = system: Staphylococcus aureus MB No. 698; assay: as above; assay type: cell-based; conditions: MBNO.698, 0.015 ml of 9.5 μg/ml aqueous solution, 25° C., read-out: Inhib. Zone Diam.
[12] = system: Staphylococcus aureus ATCC 6538 P; assay: as above; assay type: cell-based; conditions: ATCC6538, 0.015 ml of 9.5 μg/ml aqueous solution, 25° C., read-out: Inhib. Zone Diam.
[13] = system: Escherichia coli ATCC 9637; assay: as above; assay type: cell-based; conditions: ATCC9637, 0.015 ml of 9.5 μg/ml aqueous solution, 25° C., read-out: Inhib. Zone Diam.
[14] = system: Klebsiella pneumoniae MB No. 1264; assay: as above; assay type: cell-based; conditions: MBNO.1264, 0.015 ml of 9.5 μg/ml aqueous solution, 25° C., read-out: Inhib. Zone Diam.
[15] = system: various gram-positive and gram-negative bacteria; assay: Antibacterial activity (statement); assay type: cell-based
[16] = system: Bacillus subtilis ATCC 6633; assay: Antibiotic spectrum profile, agar zone of inhibition; assay type: cell-based; conditions: ATCC6633, 0.015 ml of 9.5 μg/ml aqueous solution, 25° C., read-out: Inhib. Zone Diam.
[17] = system: Proteus vulgaris MB No. 2112 (episome); assay: as above; assay type: cell-based; conditions: read-out: Inhib. Zone Diam.
[18] = system: Proteus vulgaris ATCC 21100; assay: as above; assay type: cell-based; conditions: ATCC21100, 0.015 ml of 9.5 μg/ml aqueous solution, 25° C., read-out: Inhib. Zone Diam.
[19] = system: Pseudomonas stutzeri ATCC 11607; assay: as above; assay type: cell-based; conditions: Stutzerimonas stutzeri, ATCC11607, 0.015 ml of 9.5 μg/ml aqueous solution, 25° C., read-out: Inhib. Zone Diam.
[20] = system: Alcaligenes faecalis ATCC 213; assay: as above; assay type: cell-based; conditions: ATCC213, 0.015 ml of 9.5 μg/ml aqueous solution, 25° C., read-out: Inhib. Zone Diam.
[21] = system: Serratia marcescens ATCC 890; assay: as above; assay type: cell-based; conditions: ATCC890, 0.015 ml of 9.5 μg/ml aqueous solution, 25° C., read-out: Inhib. Zone Diam.
Procedure: (§1) The test to determine the antibiotic spectrum profiles of antibiotic 890A10 is carried out by application of a 0.015 ml. droplet of a 9.5 μg./ml. aqueous solution of the antibiotic on the surface of a 100×15 mm. petri plate containing 3 ml. of seeded nutrient agar plus 0.2% yeast extract which is incubated at 25° C.

[22] = system: Aerobacter aerogenes MB No. 835; assay: as above; assay type: cell-based; conditions: Klebsiella aerogenes, MBNO.835, 0.015 ml of 9.5 μg/ml aqueous solution, 25° C., read-out: Inhib. Zone Diam.
Procedure: as §1

[23] = system: Streptococcus faecium MB No. 2820; assay: as above; assay type: cell-based; conditions: Enterococcus faecium, MBNO.2820, 0.015 ml of 9.5 μg/ml aqueous solution, 25° C., read-out: Inhib. Zone Diam.
[24] = system: Vibrio percolans ATCC 8461; assay: Antibiotic spectrum profile, agar zone of inhibition, with penicillinase; assay type: cell-based; conditions: Comamonas terrigena, ATCC8461; 0.015 ml of 9.5 μg/ml aqueous solution; 25° C.; Vibrio Percolans ATCC 8461 + 2×10^5 u/ml penicillinase; read-out: Inhib. Zone Diam.
[25] = system: Proteus mirabilis MB No. 3126; assay: Antibiotic spectrum profile, agar zone of inhibition; assay type: cell-based; conditions: MBNO.3126, 0.015 ml of 9.5 μg/ml aqueous solution, 25° C., read-out: Inhib. Zone Diam.

**Q.** With `CC(=O)NCCSC1=C(C(=O)O)N2C(=O)C(C(C)OS(=O)(=O)O)C2C1` (centres unmarked) [Antibiotic 890A10] as the compound, how does the “inhibition of bacterial β-lactamases” value (bacterial β-lactamases) read?
**A.** potent inhibitor of bacterial β-lactamases

**Q.** What about the zone of inhibition at 9.5 µg/mL [1] of the same compound?
**A.** 19 mm

**Q.** And the zone of inhibition at 9.5 µg/mL [2]?
**A.** 10 mm

**Q.** What about the zone of inhibition at 9.5 µg/mL [3] of the same compound?
**A.** 33 mm

**Q.** And the “movement toward the positive pole on electrophoresis” value [4]?
**A.** 8.0 cm

**Q.** What about the zone of inhibition at 9.5 µg/mL [5] of the same compound?
**A.** 0 mm

**Q.** And the zone of inhibition at 9.5 µg/mL [6]?
**A.** 12 mm

**Q.** And the “stability under acidic conditions in aqueous solution” value [7]?
**A.** unstable

**Q.** What about the zone of inhibition at 9.5 µg/mL [8] of the same compound?
**A.** 22 mm

**Q.** What about the zone of inhibition at 9.5 µg/mL [9] of the same compound?
**A.** 0 mm

**Q.** And the zone of inhibition at 9.5 µg/mL [10]?
**A.** 28 mm

**Q.** And the zone of inhibition at 9.5 µg/mL [11]?
**A.** 23 mm

**Q.** And the zone of inhibition at 9.5 µg/mL [12]?
**A.** 20 mm

**Q.** And the zone of inhibition at 9.5 µg/mL [13]?
**A.** 17 mm

**Q.** What about the zone of inhibition at 9.5 µg/mL [14] of the same compound?
**A.** 19 mm

**Q.** What about the antibacterial activity [15] of the same compound?
**A.** active against various gram-positive and gram-negative bacteria

**Q.** What about the zone of inhibition at 9.5 µg/mL [16] of the same compound?
**A.** 30 mm

**Q.** What about the zone of inhibition at 9.5 µg/mL [17] of the same compound?
**A.** 30 mm

**Q.** What about the zone of inhibition at 9.5 µg/mL [18] of the same compound?
**A.** 30 mm

**Q.** And the zone of inhibition at 9.5 µg/mL [19]?
**A.** 0 mm

**Q.** And the zone of inhibition at 9.5 µg/mL [20]?
**A.** 24 mm

**Q.** What about the zone of inhibition at 9.5 µg/mL [21] of the same compound?
**A.** 15 mm

**Q.** And the zone of inhibition at 9.5 µg/mL [22]?
**A.** 22 mm

**Q.** What about the zone of inhibition at 9.5 µg/mL [23] of the same compound?
**A.** 0 mm

**Q.** And the zone of inhibition at 9.5 µg/mL [24]?
**A.** 25 mm

**Q.** What about the zone of inhibition at 9.5 µg/mL [25] of the same compound?
**A.** 29 mm
